Reference: patent US20250114460A1, “NOVEL PLK1 DEGRADATION INDUCING COMPOUND” (UPPTHERA, INC., priority 2021, published 2025)

Legend:
Format in all cases: cell-based
[1] = target: T1, PLK1 (Homo sapiens, UniProt P53350); experiment: Luciferase assay for PLK1 in HeLa LgBit (Plk1-HiBit KI) cell line; settings: 300 nM compound, luminescence after 9 hours
T1 construct: endogenous in cells; host or cells: HeLa LgBit (Plk1-HiBit KI): HeLa stably expressing LgBit, with a CRISPR/Cas9 knock-in of HiBit at the endogenous PLK1 locus
T1 sequence (P53350 whole entry): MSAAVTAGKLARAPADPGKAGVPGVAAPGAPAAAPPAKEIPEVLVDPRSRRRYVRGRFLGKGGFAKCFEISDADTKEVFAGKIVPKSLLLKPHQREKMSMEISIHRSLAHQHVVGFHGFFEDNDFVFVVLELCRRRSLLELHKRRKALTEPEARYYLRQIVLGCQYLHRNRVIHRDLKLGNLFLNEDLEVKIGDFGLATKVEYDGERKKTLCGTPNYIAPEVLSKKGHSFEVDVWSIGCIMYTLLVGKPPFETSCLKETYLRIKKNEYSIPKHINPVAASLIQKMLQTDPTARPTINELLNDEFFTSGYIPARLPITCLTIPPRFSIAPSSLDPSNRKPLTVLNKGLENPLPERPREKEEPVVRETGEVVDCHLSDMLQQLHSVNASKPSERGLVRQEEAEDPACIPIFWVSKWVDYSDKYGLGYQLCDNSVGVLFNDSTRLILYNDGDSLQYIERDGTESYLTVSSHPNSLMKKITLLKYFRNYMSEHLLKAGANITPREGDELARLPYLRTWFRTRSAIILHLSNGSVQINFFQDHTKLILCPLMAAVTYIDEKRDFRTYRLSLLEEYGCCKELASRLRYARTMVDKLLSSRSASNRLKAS
How it was run: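 Luminescence, followed in real time after adding compound at 300 nM and Endurazine substrate, is reported relative to DMSO-treated wells. Cells are a HeLa LgBit line with a Plk1-HiBit knock-in, synchronized by 2 mM thymidine for 24 h, released, and cultured 18 h before treatment.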

[2] = system: NCI-H526 cell line; experiment: Cell viability assay for H526 cell (EZ-Cytox); settings: Homo sapiens, NCI-H526, 120 h; H526 cells, 5 days, 3000 nM to 0.46 nM
How it was run: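 Read-out was EZ-Cytox colorimetric absorbance at 450 nm, taken after brief plate shaking, with IC50 derived. Before reading, H526 cells had been cultured with test compound for 5 days.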

[3] = system: MRC-5 cell line; experiment: Cell viability assay for MRC-5 cell line (EZ-Cytox); settings: Homo sapiens, MRC5, 120 h; MRC-5 normal cell line, 5 days, 10000 nM to 1.52 nM; N.D. = no cytotoxicity until 10 μM; read-out: Activity: IC50 value of Exemplary Compound to MRC-5 cell line
Procedure: 4. Cell Viability Assay for MRC-5 Cell Line
(1) Culture of MRC-5 Cell Line
Passage of cultured cells was maintained within P15.
(2) Treatment of Compounds of the Present Invention
Then, it was cultured in 37° C.
(3) Cytotoxicity Experiment
CO2 incubator for 4 hours.

Row | Compound | Activity: ratio of the luminescense value of each Exemplary Compound treatment group to DMSO treatment group [1] | IC50 [2] | IC50 [3]
1 | COc1cc(C(=O)NC2CC(N(C)C3CCN(c4cccc5c4C(=O)N(C4CCC(=O)NC4=O)C5=O)CC3)C2)ccc1Nc1ncc2c(n1)N(C(C)C)CC(F)(F)C(=O)N2C (stereo not drawn) [Compound 164, 4-((7,7-difluoro-9-isopropyl-5-methyl-6-oxo-6,7,8,9-tetrahydro-5H-pyrimido[4,5-b][1,4]diazepin-2-yl)amino)-N-(3-((1-(2-(2,6-dioxopiperidin-3-yl)-1,3-dioxoisoindolin-4-yl)piperidin-4-yl)(methyl)amino)cyclobutyl)-3-methoxybenzamide] | ++ (++<0.6) | < 30 nM | > 10 µM
2 | COc1cc2c(cc1Nc1ncc3c(n1)N(C1CCCC1)CC(F)(F)C(=O)N3C)CCN(C1CCN(C(=O)CCN3CCN(c4cccc5c4C(=O)N(C4CCC(=O)NC4=O)C5=O)CC3)CC1)C2=O (stereo not drawn) [Compound 102, 4-(4-(3-(4-(6-((9-cyclopentyl-7,7-difluoro-5-methyl-6-oxo-6,7,8,9-tetrahydro-5H-pyrimido[4,5-b][1,4]diazepin-2-yl)amino)-7-methoxy-1-oxo-3,4-dihydroisoquinolin-2(1H)-yl)piperidin-1-yl)-3-oxopropyl)piperazin-1-yl)-2-(2,6-dioxopiperidin-3-yl)isoindoline-1,3-dione] | ++ (++<0.6) | < 400 nM | 14.4 µM
3 | COc1cc(C(=O)NN2CCC(N3CC4(CCN(c5ccc6c(c5)CN(C5CCC(=O)NC5=O)C6=O)CC4)C3)CC2)ccc1Nc1ncc2c(n1)N(C(C)C)CC(F)(F)C(=O)N2C (stereo not drawn) [Compound 219, 4-((7,7-difluoro-9-isopropyl-5-methyl-6-oxo-6,7,8,9-tetrahydro-5H-pyrimido[4,5-b][1,4]diazepin-2-yl)amino)-N-(4-(7-(2-(2,6-dioxopiperidin-3-yl)-1-oxoisoindolin-5-yl)-2,7-diazaspiro[3.5]nonan-2-yl)piperidin-1-yl)-3-methoxybenzamide] | ++ (++<0.6) | < 30 nM | 13 µM
4 | COc1cc(C(=O)N[C@H]2CC[C@H](N3CCN(CCC4CCN(c5cccc6c5C(=O)N(C5CCC(=O)NC5=O)C6=O)CC4)CC3)CC2)c(F)cc1Nc1ncc2c(n1)N(C1CCCC1)CC(F)(F)C(=O)N2C (stereo partly drawn) [Compound 114, 4-((9-cyclopentyl-7,7-difluoro-5-methyl-6-oxo-6,7,8,9-tetrahydro-5H-pyrimido[4,5-b][1,4]diazepin-2-yl)amino)-N-((1r,4r)-4-(4-(2-(1-(2-(2,6-dioxopiperidin-3-yl)-1,3-dioxoisoindolin-4-yl)piperidin-4-yl)ethyl)piperazin-1-yl)cyclohexyl)-2-fluoro-5-methoxybenzamide] | ++ (++<0.6) | < 200 nM | > 10 µM
5 | COc1cc(C(=O)NN2CCC(CN3CCN(c4cccc5c4CN(C4CCC(=O)NC4=O)C5=O)CC3)C(F)(F)C2)ccc1Nc1ncc2c(n1)N(C(C)C)CC(F)(F)C(=O)N2C (stereo not drawn) [Compound 158, 4-((7,7-difluoro-9-isopropyl-5-methyl-6-oxo-6,7,8,9-tetrahydro-5H-pyrimido[4,5-b][1,4]diazepin-2-yl)amino)-N-(4-((4-(2-(2,6-dioxopiperidin-3-yl)-1-oxoisoindolin-4-yl)piperazin-1-yl)methyl)-3,3-difluoropiperidin-1-yl)-3-methoxybenzamide] | +++ (+++: <0.3) | < 50 nM | 39.3 µM
6 | COc1cc(C(=O)NC2CCN(C(=O)CCN3CCN(c4cccc5c4C(=O)N(C4CCC(=O)NC4=O)C5=O)CC3)CC2)c(C(F)(F)F)cc1Nc1ncc2c(n1)N(C1CCCC1)CC(F)(F)C(=O)N2C (stereo not drawn) [Compound 119, 4-((9-cyclopentyl-7,7-difluoro-5-methyl-6-oxo-6,7,8,9-tetrahydro-5H-pyrimido[4,5-b][1,4]diazepin-2-yl)amino)-N-(1-(3-(4-(2-(2,6-dioxopiperidin-3-yl)-1,3-dioxoisoindolin-4-yl)piperazin-1-yl)propanoyl)piperidin-4-yl)-5-methoxy-2-(trifluoromethyl) benzamide] | ++ (++<0.6) | < 200 nM | > 10 µM
7 | COc1cc(C(=O)NN2CC(N3CCN(c4ccc5c(c4)C(=O)N(C4CCC(=O)NC4=O)C5=O)CC3)C2)ccc1Nc1ncc2c(n1)N(C(C)C)CC(F)(F)C(=O)N2C (stereo not drawn) [Compound 159, 4-((7,7-difluoro-9-isopropyl-5-methyl-6-oxo-6,7,8,9-tetrahydro-5H-pyrimido[4,5-b][1,4]diazepin-2-yl)amino)-N-(3-(4-(2-(2,6-dioxopiperidin-3-yl)-1,3-dioxoisoindolin-5-yl)piperazin-1-yl)azetidin-1-yl)-3-methoxybenzamide] | ++ (++<0.6) | < 30 nM | 4.91 µM
8 | COc1cc(C(=O)NC2CCC(N(C)C3CCN(c4cccc5c4C(=O)N(C4CCC(=O)NC4=O)C5=O)CC3)C2)ccc1Nc1ncc2c(n1)N(C(C)C)CC(F)(F)C(=O)N2C (stereo not drawn) [Compound 165, 4-((7,7-difluoro-9-isopropyl-5-methyl-6-oxo-6,7,8,9-tetrahydro-5H-pyrimido[4,5-b][1,4]diazepin-2-yl)amino)-N-(3-((1-(2-(2,6-dioxopiperidin-3-yl)-1,3-dioxoisoindolin-4-yl)piperidin-4-yl)(methyl)amino)cyclopentyl)-3-methoxybenzamide] | ++ (++<0.6) | < 30 nM | > 10 µM

Further lines, with some results ahead:

Row | Activity: ratio of the luminescense value of each Exemplary Compound treatment group to DMSO treatment group [1] | Compound | IC50 [2] | IC50 [3]
9 | ++ (++<0.6) | Cc1cc(C(=O)NC2CCN(C(=O)CCN3CCN(c4cccc5c4C(=O)N(C4CCC(=O)NC4=O)C5=O)CC3)CC2)ccc1Nc1ncc2c(n1)N(C1CCCC1)CC(F)(F)C(=O)N2C (stereo not drawn) [Compound 71, 4-((9-cyclopentyl-7,7-difluoro-5-methyl-6-oxo-6,7,8,9-tetrahydro-5H-pyrimido[4,5-b][1,4]diazepin-2-yl)amino)-N-(1-(3-(4-(2-(2,6-dioxopiperidin-3-yl)-1,3-dioxoisoindolin-4-yl)piperazin-1-yl)propanoyl)piperidin-4-yl)-3-methylbenzamide] | < 50 nM | > 10 µM
10 | ++ (++<0.6) | COc1cc(C(=O)NN2CCC(CN3CCN(c4cccc5c4C(=O)N(C4CCC(=O)NC4=O)C5=O)CC3)C(F)(F)C2)ccc1Nc1ncc2c(n1)N(C(C)C)CC(F)(F)C(=O)N2C (stereo not drawn) [Compound 157, 4-((7,7-difluoro-9-isopropyl-5-methyl-6-oxo-6,7,8,9-tetrahydro-5H-pyrimido[4,5-b][1,4]diazepin-2-yl)amino)-N-(4-((4-(2-(2,6-dioxopiperidin-3-yl)-1,3-dioxoisoindolin-4-yl)piperazin-1-yl)methyl)-3,3-difluoropiperidin-1-yl)-3-methoxybenzamide] | < 100 nM | > 10 µM
11 | ++ (++<0.6) | CN1C(=O)C(F)(F)CN(C2CCCC2)c2nc(Nc3ccc(C(=O)NC4CCN(C(=O)CCN5CCN(c6cccc7c6C(=O)N(C6CCC(=O)NC6=O)C7=O)CC5)CC4)cc3OC(F)(F)F)ncc21 (stereo not drawn) [Compound 74, 4-((9-cyclopentyl-7,7-difluoro-5-methyl-6-oxo-6,7,8,9-tetrahydro-5H-pyrimido[4,5-b][1,4]diazepin-2-yl)amino)-N-(1-(3-(4-(2-(2,6-dioxopiperidin-3-yl)-1,3-dioxoisoindolin-4-yl)piperazin-1-yl)propanoyl)piperidin-4-yl)-3-(trifluoromethoxy)benzamide] | < 200 nM | > 10 µM
12 | ++ (++<0.6) | COc1cc(C(=O)N2CCC(CCN3CCN(c4ccc5c(c4)C(=O)N(C4CCC(=O)NC4=O)C5=O)CC3)CC2)ccc1Nc1ncc2c(n1)N(C1CCCC1)CC(F)(F)C(=O)N2C (stereo not drawn) [Compound 98, 5-(4-(2-(1-(4-((9-cyclopentyl-7,7-difluoro-5-methyl-6-oxo-6,7,8,9-tetrahydro-5H-pyrimido[4,5-b][1,4]diazepin-2-yl)amino)-3-methoxybenzoyl)piperidin-4-yl)ethyl)piperazin-1-yl)-2-(2,6-dioxopiperidin-3-yl)isoindoline-1,3-dione] | < 400 nM | > 10 µM
13 | ++ (++<0.6) | COc1cc(C(=O)NN2CCC(CN3CCN(c4cccc5c4C(=O)N(C4CCC(=O)NC4=O)C5=O)CC3)CC2)ccc1Nc1ncc2c(n1)N(C1CCCC1)CC(F)(F)C(=O)N2C (stereo not drawn) [Compound 124, 4-((9-cyclopentyl-7,7-difluoro-5-methyl-6-oxo-6,7,8,9-tetrahydro-5H-pyrimido[4,5-b][1,4]diazepin-2-yl)amino)-N-(4-((4-(2-(2,6-dioxopiperidin-3-yl)-1,3-dioxoisoindolin-4-yl)piperazin-1-yl)methyl)piperidin-1-yl)-3-methoxybenzamide] | < 30 nM | > 10 µM
